# Results: US6376426B1, “Herbicidal 3-(heterocycl-1-yl)-uracils” (BASF Aktiengesellschaft, priority 1999, dated 2002)
# Assays:
# Assay type in all cases: in vivo
# Triticum aestivum [1] = experiment: Pre-emergence herbicidal test, TRZAW; conditions: 21 days after spraying
# Protocol: (§1) To evaluate their herbicidal activity, compounds according to the invention are tested using a representative range of plants:
# (§2) The pre-emergence tests involve spraying a liquid formulation of the compound onto the soil in which the seeds of the plant species mentioned above has recently been sown.
# (§3) The soil used in the tests is a prepared horticultural loam. The formulations used in the tests are prepared from solutions of the test compounds in acetone containing 0.4% by weight of an alkylphenol/ethylene oxide condensate available under the trade mark TRITON X-155. […] In these tests untreated sown soil are used as controls.
# (§4) The herbicidal effects of the test compounds are assessed visually twenty-one days after spraying the foliage and the soil and are recorded on a 0-9 scale. A rating 0 indicates growth as untreated control, a rating 9 indicates death. An increase of 1 unit on the linear scale approximates to a 10% increase in the level of effect.
# Hordeum vulgare [2] = experiment: Pre-emergence herbicidal test, HORVW; conditions: 21 days after spraying
# Protocol: as §1, §2, §3, §4
# Zea mays [3] = experiment: Pre-emergence herbicidal test, ZEAMX; conditions: PRE, 21 days after spraying
# Protocol: as §1, §2, §3, §4
# Glycine max [4] = experiment: Pre-emergence herbicidal test, GLXMA; design: key to herbicidal effect (0-9 scale) GLXMA / herbicidal rating GLXMA: A rating 0 indicates growth as untreated control; a rating 9 indicates death; conditions: PRE, 21 days after spraying
# Protocol: as §1, §2, §3, §4
# Setaria viridis [5] = experiment: Pre-emergence herbicidal test, SETVI; conditions: PRE, 21 days after spraying
# Protocol: as §1, §2, §3, §4
# Echinochloa crus-galli [6] = experiment: Pre-emergence herbicidal test, ECHCG; conditions: 21 days after spraying
# Protocol: as §1, §2, §3, §4
# Alopecurus myosuroides [7] = experiment: Pre-emergence herbicidal test, ALOMY; conditions: PRE, 21 days after spraying
# Protocol: as §1, §2, §3, §4
# Ipomoea hederacea [8] = experiment: Pre-emergence herbicidal test, IPOHE; conditions: 21 days after spraying
# Protocol: as §1, §2, §3, §4
# Galium aparine [9] = experiment: Pre-emergence herbicidal test, GALAP; conditions: PRE, 21 days after spraying
# Protocol: as §1, §2, §3, §4
# Abutilon theophrasti [10] = experiment: Pre-emergence herbicidal test, ABUTH; design: key to herbicidal effect (0-9 scale) ABUTH / herbicidal rating ABUTH: A rating 0 indicates growth as untreated control; a rating 9 indicates death; conditions: PRE, 21 days after spraying
# Protocol: as §1, §2, §3, §4
# Stellaria media [11] = experiment: Pre-emergence herbicidal test, STEME; design: key to herbicidal effect (0-9 scale) STEME / herbicidal rating STEME: A rating 0 indicates growth as untreated control; a rating 9 indicates death; conditions: PRE, 21 days after spraying
# Protocol: as §1, §2, §3, §4
# Matricaria inodora [12] = experiment: Pre-emergence herbicidal test, MATIN; conditions: PRE, 21 days after spraying
# Protocol: as §1, §2, §3, §4
# Triticum aestivum [13] = experiment: Post-emergence herbicidal test, TRZAW; design: key to herbicidal effect (0-9 scale) TRZAW: A rating 0 indicates growth as untreated control; a rating 9 indicates death; conditions: POST, 21 days after spraying
# Protocol: as §1
# (§5) […] After spraying, the plants are placed on greenhouse benches and are cared for in the usual manner, commensurate with conventional greenhouse practices.
# as §4
# Hordeum vulgare [14] = experiment: Post-emergence herbicidal test, HORVW; conditions: 21 days after spraying
# Protocol: as §1
# These acetone solutions are diluted with water and the resulting formulations applied at dosage levels equivalent to about 1000, 800, 400, 250 or 100 g/ha per hectare of test compound per pot. After spraying, the plants are placed on greenhouse benches and are cared for in the usual manner, commensurate with conventional greenhouse practices.
# as §4
# Zea mays [15] = experiment: Post-emergence herbicidal test, ZEAMX; conditions: 21 days after spraying
# Protocol: as §1, §5, §4
# Glycine max [16] = experiment: Post-emergence herbicidal test, GLXMA; conditions: 21 days after spraying
# Protocol: as §1, §5, §4
# Setaria viridis [17] = experiment: Post-emergence herbicidal test, SETVI; conditions: POST, 21 days after spraying
# Protocol: as §1, §5, §4
# Echinochloa crus-galli [18] = experiment: Post-emergence herbicidal test, ECHCG; conditions: 21 days after spraying
# Protocol: as §1, §5, §4
# Alopecurus myosuroides [19] = experiment: Post-emergence herbicidal test, ALOMY; conditions: 21 days after spraying
# Protocol: as §1, §5, §4
# Ipomoea hederacea [20] = experiment: Post-emergence herbicidal test, IPOHE; design: key to herbicidal effect (0-9 scale) IPOHE / herbicidal rating IPOHE: A rating 0 indicates growth as untreated control; a rating 9 indicates death; conditions: POST, 21 days after spraying
# Protocol: as §1, §5, §4
# Galium aparine [21] = experiment: Post-emergence herbicidal test, GALAP; conditions: POST, 21 days after spraying
# Protocol: as §1, §5, §4
# Abutilon theophrasti [22] = experiment: Post-emergence herbicidal test, ABUTH; design: key to herbicidal effect (0-9 scale) ABUTH / herbicidal rating ABUTH: A rating 0 indicates growth as untreated control; a rating 9 indicates death; conditions: POST, 21 days after spraying
# Protocol: as §1, §5, §4
# Stellaria media [23] = experiment: Post-emergence herbicidal test, STEME; design: key to herbicidal effect (0-9 scale) STEME / herbicidal rating STEME: A rating 0 indicates growth as untreated control; a rating 9 indicates death; conditions: POST, 21 days after spraying
# Protocol: as §1, §5, §4
# Matricaria inodora [24] = experiment: Post-emergence herbicidal test, MATIN; conditions: POST, 21 days after spraying
# Protocol: as §1, §5, §4
compound,measurement,setting,value
Cn1c(C(F)(F)F)cc(=O)n(-n2ccc3ccc([N+](=O)[O-])cc32)c1=O [Example 5],herbicidal effect (0-9 scale) TRZAW,Triticum aestivum [1]; 250 g/ha,2
same,herbicidal effect (0-9 scale) TRZAW,Triticum aestivum [1]; 1000 g/ha,5
same,herbicidal effect (0-9 scale) HORVW,Hordeum vulgare [2]; 250 g/ha,4
same,herbicidal effect (0-9 scale) HORVW,Hordeum vulgare [2]; 1000 g/ha,6
same,herbicidal effect (0-9 scale) ZEAMX,Zea mays [3]; 250 g/ha,4
same,herbicidal effect (0-9 scale) ZEAMX,Zea mays [3]; 1000 g/ha,5
same,herbicidal effect (0-9 scale) GLXMA,Glycine max [4]; 250 g/ha,0
same,herbicidal effect (0-9 scale) GLXMA,Glycine max [4]; 1000 g/ha,0
same,herbicidal effect (0-9 scale) SETVI,Setaria viridis [5]; 250 g/ha,8
same,herbicidal effect (0-9 scale) SETVI,Setaria viridis [5]; 1000 g/ha,8
same,herbicidal effect (0-9 scale) ECHCG,Echinochloa crus-galli [6]; 250 g/ha,7
same,herbicidal effect (0-9 scale) ECHCG,Echinochloa crus-galli [6]; 1000 g/ha,8
same,herbicidal effect (0-9 scale) ALOMY,Alopecurus myosuroides [7]; 250 g/ha,3
same,herbicidal effect (0-9 scale) ALOMY,Alopecurus myosuroides [7]; 1000 g/ha,6
same,herbicidal effect (0-9 scale) IPOHE,Ipomoea hederacea [8]; 250 g/ha,5
same,herbicidal effect (0-9 scale) IPOHE,Ipomoea hederacea [8]; 1000 g/ha,5
same,herbicidal effect (0-9 scale) GALAP,Galium aparine [9]; 250 g/ha,5
same,herbicidal effect (0-9 scale) GALAP,Galium aparine [9]; 1000 g/ha,8
same,herbicidal effect (0-9 scale) ABUTH,Abutilon theophrasti [10]; 250 g/ha,5
same,herbicidal effect (0-9 scale) ABUTH,Abutilon theophrasti [10]; 1000 g/ha,9
same,herbicidal effect (0-9 scale) STEME,Stellaria media [11]; 250 g/ha,0
same,herbicidal effect (0-9 scale) STEME,Stellaria media [11]; 1000 g/ha,2
same,herbicidal effect (0-9 scale) MATIN,Matricaria inodora [12]; 250 g/ha,7
same,herbicidal effect (0-9 scale) MATIN,Matricaria inodora [12]; 1000 g/ha,8
same,herbicidal effect (0-9 scale) TRZAW,Triticum aestivum [13]; 250 g/ha,0
same,herbicidal effect (0-9 scale) TRZAW,Triticum aestivum [13]; 1000 g/ha,2
same,herbicidal effect (0-9 scale) HORVW,Hordeum vulgare [14]; 250 g/ha,2
same,herbicidal effect (0-9 scale) HORVW,Hordeum vulgare [14]; 1000 g/ha,4
same,herbicidal effect (0-9 scale) ZEAMX,Zea mays [15]; 250 g/ha,2
same,herbicidal effect (0-9 scale) ZEAMX,Zea mays [15]; 1000 g/ha,5
same,herbicidal effect (0-9 scale) GLXMA,Glycine max [16]; 250 g/ha,6
same,herbicidal effect (0-9 scale) GLXMA,Glycine max [16]; 1000 g/ha,8
same,herbicidal effect (0-9 scale) SETVI,Setaria viridis [17]; 250 g/ha,7
same,herbicidal effect (0-9 scale) SETVI,Setaria viridis [17]; 1000 g/ha,8
same,herbicidal effect (0-9 scale) ECHCG,Echinochloa crus-galli [18]; 250 g/ha,5
same,herbicidal effect (0-9 scale) ECHCG,Echinochloa crus-galli [18]; 1000 g/ha,8
same,herbicidal effect (0-9 scale) ALOMY,Alopecurus myosuroides [19]; 250 g/ha,1
same,herbicidal effect (0-9 scale) ALOMY,Alopecurus myosuroides [19]; 1000 g/ha,4
same,herbicidal effect (0-9 scale) IPOHE,Ipomoea hederacea [20]; 250 g/ha,6
same,herbicidal effect (0-9 scale) IPOHE,Ipomoea hederacea [20]; 1000 g/ha,9
same,herbicidal effect (0-9 scale) GALAP,Galium aparine [21]; 250 g/ha,4
same,herbicidal effect (0-9 scale) GALAP,Galium aparine [21]; 1000 g/ha,6
same,herbicidal effect (0-9 scale) ABUTH,Abutilon theophrasti [22]; 250 g/ha,8
same,herbicidal effect (0-9 scale) ABUTH,Abutilon theophrasti [22]; 1000 g/ha,9
same,herbicidal effect (0-9 scale) STEME,Stellaria media [23]; 250 g/ha,0
same,herbicidal effect (0-9 scale) STEME,Stellaria media [23]; 1000 g/ha,5
same,herbicidal effect (0-9 scale) MATIN,Matricaria inodora [24]; 250 g/ha,4
same,herbicidal effect (0-9 scale) MATIN,Matricaria inodora [24]; 1000 g/ha,7
